A short description of series [1]: logP determination by HPLC on reversed-phase column (C18), EEC Directive 79/831 Annex V.A8. The series is classed as physicochemical. As to conditions: reversed-phase C18, acetonitrile/water with formic acid; for chromatographic logP: reversed-phase C18 HPLC column.
Series [2] relates to two-spotted spider mite (Tetranychus urticae). In words: Tetranychus urticae spray test; OP-resistant (bean plants). As to conditions: after 7 days. The class given is in vivo.
Series [3] has as its system cattle ticks (Boophilus microplus) strane Parhurst, SP-resistant. In words: Boophilus microplus dip test (BOOPMI Dip). The series is classed as in vivo. As to conditions: 100 ppm, egg deposition after 7 days. The text has this:
Boophilus microplus—Diptest (BOOPMI Dip)
Test animal: cattle ticks (Boophilus microplus) strane Parhurst, SP-resistant
(§1) Solvent: dimethyl sulfoxide
This compound solution is pipetted into tubes. 8-10 engorged, adult, female cattle ticks (Boophilus microplus) are placed in perforated tubes. These tubes are immersed in the aqueous compound solution until the ticks are completely moistened. After the liquid has drained off, the ticks are transferred to a filter paper in a plastic tray and stored in a climate chamber.
(§2) After 7 days egg deposition of fertile eggs is monitored. Eggs where fertility is not visible are stored in a climate chamber till hatching after about 42 days. An efficacy of 100% means all eggs are infertile; 0% means all eggs are fertile.

Series [4] relates to fall armyworm larvae (Spodoptera frugiperda). As to the kind of experiment: Spodoptera frugiperda spray test (maize leaf sections). The series is classed as in vivo. The conditions noted are these: 100 g/ha, after 7 days. The source says: Spodoptera frugiperda—Spray Test
(§3) Solvent: 78.0 parts by weight acetone
(§4) • 1.5 parts by weight dimethylformamide Emulsifier: alkylarylpolyglycol ether
Maize (Zea mays) leaf sections are sprayed with a preparation of the active ingredient of the desired concentration. Once dry, the leaf sections are infested with fall armyworm larvae (Spodoptera frugiperda).

The subject of series [5] is Tick nymphs (Amblyomma hebraeum). As to the kind of experiment: Amblyomma hebraeum test (AMBYHE). The series is classed as in vivo. The conditions noted are these: 100 ppm, after 42 days. How it is done:
Amblyomma hebraeum—Test (AMBYHE)
as §1
Tick nymphs (Amblyomma hebraeum) are placed in perforated plastic beakers and immersed in the aqueous compound solution for one minute. Ticks are transferred to a filter paper in a petridish and incubated in a climate chamber.

For series [6], the system named is adult brown dog ticks (Rhipicephalus sanguineus). In words: Rhipicephalus sanguineus in-vitro contact test with adult brown dog ticks. The series is classed as in vivo. As to conditions: 5 μg/cm^2 (=500 g/ha), after 48 hours. On the procedure: Rhipicephalus sanguineus—In-Vitro Contact Tests with Adult Brown Doe Ticks
(§5) 9 mg compound is solved in 1 ml acetone and diluted with acetone to the desired concentration. 250 μl of the test solution is filled in 25 ml glass test tubes and homogeneously distributed on the inner walls by rotation and tilting on a shaking device (2 h at 30 rpm). With a compound concentration of 900 ppm, an inner surface of 44.7 cm^2 and a homogeneous distribution, a dose of 5 μg/cm^2 is achieved.
After the solvent has evaporated, each test tube is filled with 5-10 adult brown dog ticks (Rhipicephalus sanguineus), closed with a perforated lid and incubated in a lying position at room temperature and relative humidity. After 48 hours efficacy is determined. The ticks are patted on the ground of the tubes and are incubated on a heating plate at 45-50° C. for at most 5 minutes. Immotile or uncoordinated moving ticks, which are not able to escape the heat by climbing upwards, are marked as dead or moribund.
An efficacy of 100% means all ticks are dead or moribund; 0% means no ticks are dead or moribund.

The test system of series [7] is adult engorged female ticks (Boophilus microplus). As to the kind of experiment: Boophilus microplus injection test (BOOPMI Inj). The class given is in vivo. The conditions noted are these: 20 μg/animal, egg deposition after 7 days. On the procedure:
Boophilus microplus—Injectiontest (BOOPMI Inj)
as §1
Five adult engorged female ticks (Boophilus microplus) are injected with 1 μl compound solution into the abdomen. The ticks are transferred into replica plates and incubated in a climate chamber.
as §2

Series [8] concerns adult cat fleas (Ctenocephalides felis). In words: Ctenocephalides felis in-vitro contact test, adult cat flea. The series is classed as in vivo. As to conditions: 5 μg/cm^2 (=500 g/ha), after 48 hours. How it is done:
Ctenocephalides felis—In-Vitro Contact Tests Adult Cat Flea
as §5
After the solvent has evaporated, each test tube is filled with 5-10 adult cat fleas (Ctenocephalides felis), closed with a perforated lid and incubated in a lying position at room temperature and relative humidity. After 48 hours efficacy is determined. The fleas are patted on the ground of the tubes and are incubated on a heating plate at 45-50° C. for at most 5 minutes. Immotile or uncoordinated moving fleas, which are not able to escape the heat by climbing upwards, are marked as dead or moribund.
An efficacy of 100% means all fleas are dead or moribund; 0% means no fleas are dead or moribund.

In series [9] the test system is adult house flies (Musca domestica). In words: Musca domestica test (MUSCDO). The series is classed as in vivo. The conditions noted are these: 100 ppm, after 2 days.
From the text: Musca domestica—Test (MUSCDO)
as §1
10 adult house flies (Musca domestica) are transferred into a container, containing a sponge soaked with a mixture of sugar solution and compound solution of the desired concentration.

In series [10] the test system is larvae of the Australian sheep blowfly (Lucilia cuprina). As to the kind of experiment: Lucilia cuprina test (LUCICU). The conditions noted are these: 100 ppm, after 2 days. The class given is in vivo. How it is done:
Lucilia cuprina—Test (LUCICU)
as §1
10 mg active compound are dissolved in 0.5 ml Dimethylsulfoxid. Serial dilutions are made to obtain the desired rates.
Approximately 20 […] instar larvae of the Australian sheep blowfly (Lucilia cuprina) are transferred into a test tube containing minced horse meat and compound solution of the desired concentration.

The subject of series [11] is green peach aphid (Myzus persicae). In words: Myzus persicae spray test (pepper leaves). The series is classed as in vivo. As to conditions: after 6 days.
Series [12] shares this test system. As to the kind of experiment: Myzus persicae spray test (Chinese cabbage leaf disks). The series is classed as in vivo. The conditions noted are these: 20 g/ha, after 6 days. On the procedure:
Myzus persicae—Spray Test
as §3, §4
Chinese cabbage (Brassica pekinensis) leaf disks infected with all instars of the green peach aphid (Myzus persicae), are sprayed with a preparation of the active ingredient of the desired concentration.
After 6 days mortality in % is determined.

A word on the chromatographic logP: it is a lipophilicity value derived from retention on a column. Low values mean lower lipophilicity, high ones higher lipophilicity. Consider `CSc1c(C(F)(F)C(F)(F)F)nn(C)c1-n1cc(Br)cn1` [Example 15, 4-bromo-2′-methyl-4′-(methylsulfanyl)-5′-(pentafluoroethyl)-2′H-1,3′-bipyrazole], for which, in [1], the chromatographic logP amounted to 3.95.

The logP is a log measure of how a compound divides between an organic and an aqueous phase. High values mean a more lipophilic compound, low ones a more hydrophilic compound. Consider `Cn1nc(C(F)(F)F)c([S+](C)[O-])c1-n1cc(-c2ccc(Cl)c(C(=O)NC3(C#N)CC3)c2)cn1` (stereo not drawn) [Example I-01], for which the logP in [1] is 2.16. The mortality in % in series [2] (20 ppm) came to 100%.

Regarding `CCSc1c(C(F)(F)C(F)(F)F)nn(C)c1-n1cc(-c2ccc(Cl)c(C(=O)NC3(C#N)CC3)c2)cn1` [Example I-15], the logP in [1] was determined as 3.76. In addition, the “efficacy (infertile eggs)” value in [3] and in series [7] was 100% throughout. In addition, the mortality in % in series [4] is 100%; in series [5], 100%; in series [9], 90%. In addition, the “efficacy (ticks dead or moribund)” value in series [6] came to 100%. In addition, the “efficacy (fleas dead or moribund)” value in series [8] worked out at 100%.

For `Cn1nc(C(F)(F)F)c(S(C)(=O)=O)c1-n1cc(-c2ccc(Cl)c(C(=O)NC3CC3)c2)cn1` [Example I-05], in series [1], the logP came out at 2.34. Further, the mortality in % in series [10] is given as 90%; in series [11] (20 ppm) it was 100%. Further, the “efficacy (infertile eggs)” value in series [7] amounted to 100%.

On to `CC[S+]([O-])c1c(C(F)(F)C(F)(F)F)nn(C)c1-n1cc(-c2ccc(Cl)c(C(=O)NC3CC3)c2)cn1` (stereo not drawn) [Example I-22], for which the logP in series [1] was found to be 2.88.

Take `CSc1c(C(F)(F)C(F)(F)F)nn(C)c1-n1cc(-c2ccc(Cl)c(C(=O)NC3CC3)c2)cn1` [Example I-12]: the logP in [1] is 3.65. Further, the “efficacy (infertile eggs)” value in series [3] and in series [7] was 100% in each case. Moreover, the mortality in % in series [4] and in [9] was 100% throughout. Moreover, the “efficacy (ticks dead or moribund)” value in series [6] was 100%. Also, the “efficacy (fleas dead or moribund)” value in series [8] stood at 100%.

Turning to `CSc1c(C(F)(F)C(F)(F)F)nn(C)c1-n1cc(-c2cnc(Cl)c(C(=O)N(C)C3CC3)c2)cn1` [Example I-19], in series [1], the logP was 3.67.

`Cn1nc(C(F)(F)C(F)(F)F)c([S+](C)[O-])c1-n1cc(-c2ccc(Cl)c(C(=O)NC3(C#N)CC3)c2)cn1` (single isomer, unassigned) [Example I-08]: in series [1], the logP is 2.59.

`Cc1ncc(-c2cnn(-c3c([S+](C)[O-])c(C(F)(F)C(F)(F)F)nn3C)c2)cc1C(=O)NC1(C#N)CC1` (stereo not drawn) [Example I-10] gave a logP in series [1] of 1.99.

Compound `Cn1nc(C(F)(F)C(F)(F)F)c([S+](C)[O-])c1-n1cc(-c2cnc(Cl)c(C(=O)NC3(C#N)CC3)c2)cn1` (stereo not drawn) [Example I-20] came in with a logP in series [1] of 2.23. Further, the “efficacy (infertile eggs)” value in series [7] is listed as 100%. For the same compound, the mortality in % in series [11] (4 ppm) came to 95%; in series [9], 90%.

Compound `CC[S+]([O-])c1c(C(F)(F)C(F)(F)F)nn(C)c1-n1cc(-c2ccc(Cl)c(C(=O)NC3(C#N)CC3)c2)cn1` (stereo not drawn) [Example I-25] displayed a logP in [1] of 2.84. The compound further had a mortality in % in series [2] (4 ppm) of 95%.

On to `Cc1ccc(-c2cnn(-c3c(S(C)(=O)=O)c(C(F)(F)C(F)(F)F)nn3C)c2)cc1C(=O)NC1(C#N)CC1` [Example I-23], for which the logP in [1] turned out to be 2.79. Moreover, the mortality in % in [12] turned out to be 100%. In series [7], the “efficacy (infertile eggs)” value came to 100%.

In [1], `Cn1nc(C(F)(F)C(F)(F)F)c([S+](C)[O-])c1-n1cc(-c2ccc(Cl)c(C(=O)NC3(C#N)CC3)c2)cn1` (racemic) [Example I-03] had a logP of 2.61. Besides, in [7], the “efficacy (infertile eggs)” value is 100%. Besides, in [8], the “efficacy (fleas dead or moribund)” value is listed as 100%. The compound further registered a mortality in % in series [9] of 100%.

`Cc1ccc(-c2cnn(-c3c([S+](C)[O-])c(C(F)(F)C(F)(F)F)nn3C)c2)cc1C(=O)NC1(C#N)CC1` (stereo not drawn) [Example I-24] registered a logP in [1] of 2.57. Moreover, in series [7], the “efficacy (infertile eggs)” value is recorded as 100%.

For the compound `Cc1ccc(-c2cnn(-c3c([S+](C)[O-])c(C(F)(F)C(F)(F)F)nn3C)c2)cc1C(=O)NC1CC1` (stereo not drawn) [Example I-18], the logP in series [1] is 2.57. For the same compound, the “efficacy (ticks dead or moribund)” value in series [6] was determined as 80%. In series [7], the “efficacy (infertile eggs)” value stood at 100%. Further, the “efficacy (fleas dead or moribund)” value in series [8] came to 100%.

In [1], `CSc1c(C(F)(F)C(F)(F)F)nn(C)c1-n1cc(-c2ccc(C)c(C(=O)NC3(C#N)CC3)c2)cn1` [Example I-16] displayed a logP of 3.55.

For the compound `Cn1nc(C(F)(F)C(F)(F)F)c(N)c1-n1cc(Br)cn1` [Example 14, 4-bromo-2′-methyl-5′-(pentafluoroethyl)-2′H-1,3′-bipyrazol-4′-amine], in [1], the chromatographic logP amounted to 2.68.

`Cn1nc(C(F)(F)C(F)(F)F)c(S(C)(=O)=O)c1-n1cc(-c2ccc(Cl)c(C(=O)NC3(C#N)CC3)c2)cn1` [Example I-04] gave a lipophilicity (logP) in [1] of 2.77. Moreover, the “efficacy (infertile eggs)” value in series [7] is reported as 100%. In addition, the mortality in % in series [9] is given as 100%.

`CCSc1c(C(F)(F)C(F)(F)F)nn(C)c1-n1cc(-c2ccc(Cl)c(C(=O)NC3CC3)c2)cn1` [Example I-11] showed a logP in [1] of 3.85. The “efficacy (infertile eggs)” value in [3] and in series [7] was 100% throughout. The mortality in % in series [4], in series [5] and in series [9] was 100% each time.

`Cn1nc(C(F)(F)C(F)(F)F)c([S+](C)[O-])c1-n1cc(-c2ccc(Cl)c(C(=O)NC3(C#N)CC3)c2)cn1` (single isomer, unassigned) [Example I-21]: the log partition coefficient (logP) in [1] is 2.59.

In turn, `CSc1c(C(F)(F)C(F)(F)F)nn(C)c1-n1cc(-c2ccc(C)c(C(=O)NC3CC3)c2)cn1` [Example I-17] registered a logP in series [1] of 3.64.

`Cc1ccc(-c2cnn(-c3c(S(C)(=O)=O)c(C(F)(F)C(F)(F)F)nn3C)c2)cc1C(=O)NC1CC1` [Example I-09] showed a logP in series [1] of 2.75. Further, the mortality in % in [10] is 90%; in [9], 80%. Further, the figures for the “efficacy (infertile eggs)” value in series [3] and in [7] were 80% and 100%, respectively. Further, the “efficacy (fleas dead or moribund)” value in series [8] is 100%.

Turning to `Cc1ncc(-c2cnn(-c3c([S+](C)[O-])c(C(F)(F)C(F)(F)F)nn3C)c2)cc1C(=O)NC1CC1` (stereo not drawn) [Example I-14], the logP in [1] amounted to 1.85.

Turning to `Cn1nc(C(F)(F)C(F)(F)F)c(S(C)(=O)=O)c1-n1cc(-c2ccc(Cl)c(C(=O)NC3CC3)c2)cn1` [Example I-07], the logP in series [1] is on record as 2.78. Also, the “efficacy (infertile eggs)” value in series [3] and in series [7] was 100% in each case. Besides, the mortality in % in [4], in [5] and in [9] was 100% each time. Further, in series [8], the “efficacy (fleas dead or moribund)” value was 100%.
